Measured values published in patent US20120015414A1, “Production of organic compounds” (priority 2010, published 2012).

Key:
OleC and OleD = target: T1, OleC and OleD (Xanthomonas campestris pv. campestris, UniProt Q8PDW5); test: Hydrocarbon detection enzyme assay, OleC and OleD without OleA; type: biochemical; conditions: substrate incubated with OleC and OleD
T1 construct: His6-tag with thrombin site (implied by Ni-column purification); made in house; host or cells: E. coli One Shot BL21 (DE3) for OleD
T1 sequence (Q8PDW5 2-337, added parts left off): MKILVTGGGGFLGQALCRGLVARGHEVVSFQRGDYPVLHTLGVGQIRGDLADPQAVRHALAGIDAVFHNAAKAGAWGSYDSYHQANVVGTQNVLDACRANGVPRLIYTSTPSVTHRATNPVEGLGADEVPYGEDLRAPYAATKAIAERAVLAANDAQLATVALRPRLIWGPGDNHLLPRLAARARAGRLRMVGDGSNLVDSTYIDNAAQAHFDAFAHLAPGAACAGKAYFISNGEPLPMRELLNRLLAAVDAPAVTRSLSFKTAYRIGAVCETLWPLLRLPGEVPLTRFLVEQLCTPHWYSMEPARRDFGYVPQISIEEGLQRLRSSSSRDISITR
Method: (§1) Hydrocarbon Detection Enzyme Assay. […] Products were extracted with 250 μl ethyl acetate using 16-hentriacontanone ketone (Tokyo Kasei Kogyo Co., Ltd., Japan) as an internal standard. After vortexing and 5 min of gentle centrifugation, the top solvent layer was transferred to a glass vial and analyzed using a gas chromatograph equipped with a flame ionization detector HP 7890A (Hewlett Packard, Palo Alto) and mass spectrometer HP 5975C (GC-MS-FID). GC was conducted under the following conditions: helium gas, 1.75 ml/min; HP-1 ms column (100% dimethylsiloxane capillary; 30 m by 250 μm by 0.25 μm); temperature ramp, 100° C. to 320° C.; 10° C./min, hold at 320° C. for 5 min, 250° C. injection port, and split at the outlet between MS and FID. The mass spectrometer was run under the following conditions: electron impact at 70 eV and 35 μA. The flame ionization detector was set at 250° C. with hydrogen flow set at 30 ml/min, air set at 400 ml/min, and helium makeup gas set at 25 ml/min.
The identity of the compound was confirmed by the mass spectrum shown above the GC chromatogram in FIG. III-6A, with the major ion, m/z 378, representing the molecular ion.
Next, it was tested if the ketone 14-heptacosanone could also give rise to 14-heptacosene or any other discernible product.

[1] = Spontaneous decarboxylation of synthetic beta-keto acid; conditions: synthetic acid from hydrogenolysis of the benzyl ester, no enzyme
OleA [2] = target: T2, OleA (Xanthomonas campestris pv. campestris, UniProt Q8PDX2); test: Release of CoASH thiol (DTNB) for assay of OleA substrate range; type: biochemical; conditions: for reaction with OleA to release coenzyme A: incubation time in which palmitoyl-CoA reacts completely; for % of Theoretical / CoA Product: starting substrate 65 μM; for % of Theoretical: 65 μM of product is 100% of theoretical yield; for CoA Product: free coenzyme A detected with DTNB, average of triplicate determinations with standard error; for reaction stoichiometry, coenzyme A released per acyl-CoA consumed: substrate allowed to completely react
T2 construct: His-tag (N); made in house; host or cells: E. coli One Shot BL21 (DE3), pET28b+
Method: Detecting the Release of CoASH Thiol for Assay of OleA Substrate Range. Release of the free thiol group of CoASH was detected by the addition of 5,5′-dithio-bis-(2-nitrobenzoic acid) (DTNB) measured spectrophotometrically at 412 nm (ε412=13,600 M^−1 cm^−1) (Alexson et al. 1988, J. Biol. Chem. 263:13564-13571; Ellman et al. 1958. Arch Biochem. Biophys. 74:443-450). […] DTNB was incubated with the reaction for 2 min and quantified spectrophotometrically.
Initial Defining of Substrate Specificity and Reaction Products of OleA. Enzymes catalyzing condensation or hydrolysis reactions with acyl-CoA substrates release coenzyme A that can be assayed colorimetrically using DTNB (Alexson et al. 1988. J. Biol. Chem. 263:13564-13571; Skaff et al. 2010. Anal. Biochem. 396:288-296; Sleeman et al. 2004. J. Biol. Chem. 279:6730-6736; Yashiro et al. 1995. Biochim. Biophys. 1258:288-96). […] With purified OleA, DTNB was used to determine the stoichiometry of coenzyme A formation and to begin to discern the substrate specificity of OleA.
First, the coenzyme A product stoichiometry was determined using either myristoyl-CoA or palmitoyl-CoA and allowing the substrate to completely react. With either substrate, the reaction stoichiometry was 1.0 mole of coenzyme A released for each mole of acyl-CoA consumed. In this manner, acyl-CoA chains of different lengths were tested with OleA using a time of incubation in which palmitoyl-CoA reacts completely as described in the Methods section. Under those conditions (Table III-2) palmitoyl-CoA reacted more completely than myristoyl-CoA.

OleA [3] = target: T2, OleA; test: GC-MS/GC-FID product analysis of OleA reactions with acyl-CoA substrates; type: biochemical; conditions: peak area integration
Method: Subsequent experiments were conducted to examine if coenzyme A was formed as a consequence of acyl-group condensation, thioester bond hydrolysis, or some mixture of the two reactions. Based on previous observations (Beller et al. 2010. Appl. Environ. Microbiol. 76:1212-1223; Sukovich et al. 2010. Appl. Environ. Microbiol. 76:3850-62; Friedman et al. 2008. International Patent WO2008/113041), it was known that long-chain ketones were the observed condensation products. In subsequent experiments in this study, it was shown that β-keto acids are the initial products and those decarboxylate quantitatively to the corresponding ketone. In this context, reaction mixtures were solvent extracted and subjected to GC-MS to identify ketones derived from condensation and/or fatty acids derived from acyl chain hydrolysis.
In this context, experiments were conducted with mixtures of fatty acyl-CoA substrates. All pairwise combinations of C10, C12, C14, C16, saturated and C16 monounsaturated (C16:1) acyl-CoA substrates were incubated, extracted, and analyzed for products by GC-MS and GC-FID. In all, 15 product mixtures were analyzed. […] Only with C12 acyl condensation and C14 plus C16:1 condensation were the major products derived from a condensation of fatty acyl chains. In the case of C14 condensations (myristoyl-CoA), the ketone 14-heptacosanone was produced at only slightly lower levels than the hydrolysis product myristic acid.

Synechococcus [4] = test: Growth in BG11AN medium supplemented with lactic acid; type: cell-based
Description: To maintain the co-culture of the cyanobacterium (Synechococcus) and the heterotroph (Shewanella), a minimal medium was established that would support growth of both Shewanella and Synechococcus. We started with the preferred medium for Synechococcus, known as BG11. […] A modified Synechococcus minimal medium, denoted here as BG11AN medium, was used and supplemented with lactic acid to test both lactate inhibition and ammonia inhibition. BG11AN has ammonium nitrate at 1.5 g/L replacing the sodium nitrate used in BG11. Shewanella grew well in BG11AN medium. The Synechococcus grew in the BG11AN medium, not as well as in BG11, but acceptably. The cultures in BG11 AN were more of a yellow green than the deep green of the BG11 culture. […] In fact, it stimulated growth at levels up to 0.5 g/L. It was concluded that the BG11AN medium can be used for co-culture of Synechococcus and Shewanella in subsequent experiments.

OleA and OleC = target: T3, OleA and OleC (Xanthomonas campestris pv. campestris, UniProt Q8PDX2); test: Hydrocarbon detection enzyme assay, OleA and OleC in admixture; type: biochemical; conditions: substrate incubated with OleA and OleC
T3 construct: His-tag (N); made in house; host or cells: E. coli (OleA)
T3 sequence (Q8PDX2 1-338): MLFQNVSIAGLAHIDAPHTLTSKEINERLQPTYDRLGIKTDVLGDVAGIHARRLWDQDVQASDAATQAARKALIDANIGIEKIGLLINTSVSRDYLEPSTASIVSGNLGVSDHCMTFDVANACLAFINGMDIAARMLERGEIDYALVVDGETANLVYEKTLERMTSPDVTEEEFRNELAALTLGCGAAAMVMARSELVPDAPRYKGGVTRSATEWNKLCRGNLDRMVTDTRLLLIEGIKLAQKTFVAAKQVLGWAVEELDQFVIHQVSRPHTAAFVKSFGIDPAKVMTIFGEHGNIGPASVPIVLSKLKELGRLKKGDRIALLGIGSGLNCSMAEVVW
Method: as §1
(§2) Role of OleA in olefin biosynthesis. […] Other Ole proteins were purified as described in the methods section and tested in admixture with OleA and with myristoyl-CoA as the substrate. […] The identities of the products were confirmed by mass spectrometry.

OleA, OleC and OleD = target: T4, OleA, OleC and OleD (Xanthomonas campestris pv. campestris, UniProt Q8PDX2); test: Hydrocarbon detection enzyme assay, OleA, OleC and OleD; type: biochemical; conditions: substrate incubated with OleA
T4 construct: His-tag (N); made in house
T4 sequence (Q8PDX2 1-338): T3 sequence (Q8PDX2 1-338)
Method: as §1, §2

Synechococcus [5] = test: Effect of growth supplements of the type found in corn steep liquor on Synechococcus; type: cell-based; conditions: flasks supplemented
Description: The effects of growth supplements of the type found in corn steep liquor on the growth of Synechococcus and Shewanella were examined.

SMILES | reaction with OleA to release coenzyme A (OleA [2]) | % of Theoretical (OleA [2]) [%] | CoA Product (OleA [2]) [µM] | other results
CCCCCCCCCCCCCC(=O)C(CCCCCCCCCCCC)C(=O)O (racemic) [2-myristoylmyristic acid] |  |  |  | products observed by GC-MS (OleC and OleD): yielded 14-heptacosanone and the expected olefinic product from head-to-head condensation, 14-heptacosene; stability, decarboxylation to 14-heptacosanone [1]: rapid decarboxylation
CCCCCCCCCCCCCC(=O)CCCCCCCCCCCCC [14-heptacosanone] |  |  |  | products observed by GC-MS (OleC and OleD): 14-heptacosene was not detected
CC(=O)SCCNC(=O)CCNC(=O)[C@H](O)C(C)(C)COP(=O)(O)OP(=O)(O)OC[C@H]1O[C@@H](n2cnc3c(N)ncnc32)[C@H](O)[C@@H]1OP(=O)(O)O [Acetyl-CoA] | did not |  |  | 
CCCCCCCCCC(=O)SCCNC(=O)CCNC(=O)[C@H](O)C(C)(C)COP(=O)(O)OP(=O)(O)OC[C@H]1O[C@@H](n2cnc3c(N)ncnc32)[C@H](O)[C@@H]1OP(=O)(O)O [Decanoyl-CoA] | undergo reaction to release coenzyme A | 42 | 27.2 ± 1.6 | Products, ketones (Cx) and fatty acids (FAx), in order of decreasing abundance (OleA [3]; second fatty acyl-CoA chain C10): FA10 > C19
CC(O)C(=O)O (centres unmarked) [Lactic acid] |  |  |  | level at which growth was not inhibited (Synechococcus [4]): ≤ 1 g/L; level at which growth was stimulated (Synechococcus [4]): up to 0.5 g/L
CCCCCCCCCCCC(=O)SCCNC(=O)CCNC(=O)[C@H](O)C(C)(C)COP(=O)(O)OP(=O)(O)OC[C@H]1O[C@@H](n2cnc3c(N)ncnc32)[C@H](O)[C@@H]1OP(=O)(O)O [Lauroyl-CoA] | undergo reaction to release coenzyme A | 79 | 51.4 ± 1.9 | 
CCCCCCCCCCCCCC(=O)SCCNC(=O)CCNC(=O)[C@H](O)C(C)(C)COP(=O)(O)OP(=O)(O)OC[C@H]1O[C@@H](n2cnc3c(N)ncnc32)[C@H](O)[C@@H]1OP(=O)(O)O [Myristoyl-CoA] |  | 97 | 63.2 ± 0.4 | reaction stoichiometry, coenzyme A released per acyl-CoA consumed (OleA [2]): 1.0 mole of coenzyme A released for each mole of acyl-CoA consumed; Products, ketones (Cx) and fatty acids (FAx), in order of decreasing abundance (OleA [3]; second fatty acyl-CoA chain C14): FA14 > C27; products observed by GC-MS (OleA and OleC): produced only 14-heptacosanone; products observed by GC-MS (OleA, OleC and OleD): the olefin 14-heptacosene (20.4 min) was observed in addition to the peak corresponding to 14-heptacosanone
CCCCCCCC(=O)SCCNC(=O)CCNC(=O)[C@H](O)C(C)(C)COP(=O)(O)OP(=O)(O)OC[C@H]1O[C@@H](n2cnc3c(N)ncnc32)[C@H](O)[C@@H]1OP(=O)(O)O [Octanoyl-CoA] | undergo reaction to release coenzyme A | 12 | 8.0 ± 2.2 | 
CCCCCC/C=C\CCCCCCCC(=O)SCCNC(=O)CCNC(=O)[C@H](O)C(C)(C)COP(=O)(O)OP(=O)(O)OC[C@H]1O[C@@H](n2cnc3c(N)ncnc32)[C@H](O)[C@@H]1OP(=O)(O)O [Palmitoleoyl-CoA] | undergo reaction to release coenzyme A | 57 | 36.9 ± 0.9 | Products, ketones (Cx) and fatty acids (FAx), in order of decreasing abundance (OleA [3]; second fatty acyl-CoA chain C16:1): FA16:1 > C31:2
CCCCCCCCCCCCCCCC(=O)SCCNC(=O)CCNC(=O)[C@H](O)C(C)(C)COP(=O)(O)OP(=O)(O)OC[C@H]1O[C@@H](n2cnc3c(N)ncnc32)[C@H](O)[C@@H]1OP(=O)(O)O [Palmitoyl-CoA] |  | 100 | 65.0 ± 0.9 | reaction stoichiometry, coenzyme A released per acyl-CoA consumed (OleA [2]): 1.0 mole of coenzyme A released for each mole of acyl-CoA consumed; Products, ketones (Cx) and fatty acids (FAx), in order of decreasing abundance (OleA [3]; second fatty acyl-CoA chain C16): FA16 > C31
CCCCCCCCCCCCCCCCCC(=O)SCCNC(=O)CCNC(=O)[C@H](O)C(C)(C)COP(=O)(O)OP(=O)(O)OC[C@H]1O[C@@H](n2cnc3c(N)ncnc32)[C@H](O)[C@@H]1OP(=O)(O)O [Stearoyl-CoA] | undergo reaction to release coenzyme A | 29 | 18.7 ± 1.8 | 
N[C@@H](CCC(=O)O)C(=O)O [glutamate] |  |  |  | effect on growth of Synechococcus (Synechococcus [5]): slightly better growth
NC(=O)CC[C@H](N)C(=O)O [glutamine] |  |  |  | effect on growth of Synechococcus (Synechococcus [5]): slightly better growth
